Test results published in PubChem BioAssay (NCI).
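In this assay, cells in 96-well plates receive the compound at five concentrations for 48 hours. Endpoints are linearly interpolated between the surrounding concentrations. Here, GI50 denotes the concentration required for 50% inhibition of growth. TGI is the concentration that stops growth completely.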

Assays:
Test in all cases: growth of human tumour cells (NCI), 48 h
OVCAR-8 ovarian = system: OVCAR-8 ovarian
MCF7 breast = system: MCF7 breast
SR leukemia = system: SR leukemia
BT-549 breast = system: BT-549 breast
K-562 leukemia = system: K-562 leukemia
LOX IMVI melanoma = system: LOX IMVI melanoma
SNB-75 CNS = system: SNB-75 CNS
T-47D breast = system: T-47D breast
SK-MEL-5 melanoma = system: SK-MEL-5 melanoma
OVCAR-5 ovarian = system: OVCAR-5 ovarian
MDA-MB-435 = system: MDA-MB-435
NCI-H226 lung = system: NCI-H226 lung
CCRF-CEM leukemia = system: CCRF-CEM leukemia
SN12C renal = system: SN12C renal
NCI-H522 lung = system: NCI-H522 lung
RPMI-8226 leukemia = system: RPMI-8226 leukemia
MALME-3M melanoma = system: MALME-3M melanoma
U251 CNS = system: U251 CNS
OVCAR-4 ovarian = system: OVCAR-4 ovarian
TK-10 renal = system: TK-10 renal
HCT-116 colon = system: HCT-116 colon
MOLT-4 leukemia = system: MOLT-4 leukemia
CAKI-1 renal = system: CAKI-1 renal
COLO 205 colon = system: COLO 205 colon
HCT-15 colon = system: HCT-15 colon
UACC-257 melanoma = system: UACC-257 melanoma
786-0 renal = system: 786-0 renal
SF-539 CNS = system: SF-539 CNS

Compound: COc1cccc2c1C(=O)c1c(O)c3c(c(O)c1C2=O)CC(O)(/C(C)=N/NC(=O)CCCCC(=O)N/N=C(\C)C1(O)Cc2c(O)c4c(c(O)c2C(OC2CC(N)C(O)C(C)O2)C1)C(=O)c1c(OC)cccc1C4=O)CC3OC1CC(N)C(O)C(C)O1 (centres undefined)
- GI50 (OVCAR-8 ovarian): 215 nM
- TGI (OVCAR-8 ovarian): > 50000 nM
- GI50 (MCF7 breast): 45.9 nM
- TGI (MCF7 breast): > 50000 nM
- GI50 (SR leukemia): 8.27 nM
- TGI (SR leukemia): 36.5 nM
- GI50 (BT-549 breast): 511 nM
- TGI (BT-549 breast): 4350 nM
- GI50 (K-562 leukemia): 222 nM
- TGI (K-562 leukemia): > 23300 nM
- GI50 (LOX IMVI melanoma): 80.3 nM
- GI50 (SNB-75 CNS): 118 nM
- TGI (SNB-75 CNS): 867 nM
- GI50 (T-47D breast): 93.1 nM
- TGI (T-47D breast): 2070 nM
- GI50 (SK-MEL-5 melanoma): 97.4 nM
- TGI (SK-MEL-5 melanoma): 584 nM
- GI50 (OVCAR-5 ovarian): 862 nM
- TGI (OVCAR-5 ovarian): > 50000 nM
- GI50 (MDA-MB-435): 324 nM
- TGI (MDA-MB-435): 2010 nM
- GI50 (NCI-H226 lung): 159 nM
- TGI (NCI-H226 lung): 1230 nM
- GI50 (CCRF-CEM leukemia): 207 nM
- TGI (CCRF-CEM leukemia): 18400 nM
- GI50 (SN12C renal): 178 nM
- TGI (SN12C renal): > 50000 nM
- GI50 (NCI-H522 lung): 108 nM
- TGI (NCI-H522 lung): 811 nM
- GI50 (RPMI-8226 leukemia): 139 nM
- TGI (RPMI-8226 leukemia): 2630 nM
- GI50 (MALME-3M melanoma): 146 nM
- TGI (MALME-3M melanoma): 973 nM
- GI50 (U251 CNS): 147 nM
- TGI (U251 CNS): > 23700 nM
- GI50 (OVCAR-4 ovarian): 401 nM
- TGI (OVCAR-4 ovarian): 8430 nM
- GI50 (TK-10 renal): 716 nM
- TGI (TK-10 renal): > 14300 nM
- GI50 (HCT-116 colon): 116 nM
- GI50 (MOLT-4 leukemia): 60.5 nM
- TGI (MOLT-4 leukemia): 694 nM
- GI50 (CAKI-1 renal): 265 nM
- TGI (CAKI-1 renal): 3230 nM
- GI50 (COLO 205 colon): 87.7 nM
- TGI (COLO 205 colon): 440 nM
- GI50 (HCT-15 colon): 2890 nM
- TGI (HCT-15 colon): > 50000 nM
- GI50 (UACC-257 melanoma): 554 nM
- TGI (UACC-257 melanoma): 2370 nM
- GI50 (786-0 renal): 185 nM
- TGI (786-0 renal): 1940 nM
- GI50 (SF-539 CNS): 121 nM
- TGI (SF-539 CNS): 465 nM
